ChEMBL document CHEMBL1287784, “A facile 1,3-dipolar cycloaddition of azomethine ylides to 2-arylidene-1,3-indanediones: synthesis of dispiro-oxindolylpyrrolothiazoles and their antimycobacterial evaluation” (2010)
Converted amounts (≈) assume the structure as drawn.

Test system: Mycobacterium tuberculosis
Assay: Antimycobacterial activity against Mycobacterium tuberculosis H37Rv by agar dilution method
Type: functional

| SMILES | MIC |
| --- | --- |
| O=C1c2ccccc2C(=O)C12[C@@H](c1ccccc1)[C@@H]1CSCN1[C@@]21C(=O)Nc2ccc([N+](=O)[O-])cc21 | 12.6 µM (≈ 6.27 µg/mL) |
| COc1cc([C@H]2[C@@H]3CSCN3[C@@]3(C(=O)Nc4ccc(Cl)cc43)C23C(=O)c2ccccc2C3=O)cc(OC)c1OC | 21.7 µM (≈ 12.5 µg/mL) |
| COc1ccc([C@H]2[C@@H]3CSCN3[C@@]3(C(=O)Nc4ccc([N+](=O)[O-])cc43)C23C(=O)c2ccccc2C3=O)cc1OC | 11.2 µM (≈ 6.24 µg/mL) |
| COc1cc([C@H]2[C@@H]3CSCN3[C@@]3(C(=O)Nc4ccc([N+](=O)[O-])cc43)C23C(=O)c2ccccc2C3=O)cc(OC)c1OC | 10.6 µM (≈ 6.23 µg/mL) |
| COc1cc([C@H]2[C@@H]3CSCN3[C@@]3(C(=O)Nc4ccccc43)C23C(=O)c2ccccc2C3=O)cc(OC)c1OC | > 46.1 µM |
| O=C1c2ccccc2C(=O)C12[C@@H](c1ccccc1)[C@@H]1CSCN1[C@@]21C(=O)Nc2ccc(Cl)cc21 | 25.7 µM (≈ 12.5 µg/mL) |
| O=C1c2ccccc2C(=O)C12[C@@H](c1ccc(Cl)cc1)[C@@H]1CSCN1[C@@]21C(=O)Nc2ccc(Cl)cc21 | 2.99 µM (≈ 1.56 µg/mL) |
| CC(C)c1ccc([C@H]2[C@@H]3CSCN3[C@@]3(C(=O)Nc4ccc(Cl)cc43)C23C(=O)c2ccccc2C3=O)cc1 | 11.8 µM (≈ 6.24 µg/mL) |
| COc1ccc([C@H]2[C@@H]3CSCN3[C@@]3(C(=O)Nc4ccc(Cl)cc43)C23C(=O)c2ccccc2C3=O)cc1 | 24.2 µM (≈ 12.5 µg/mL) |
| O=C1c2ccccc2C(=O)C12[C@@H](c1ccccc1Br)[C@@H]1CSCN1[C@@]21C(=O)Nc2ccc(Cl)cc21 | 2.8 µM (≈ 1.58 µg/mL) |
| COc1ccc([C@H]2[C@@H]3CSCN3[C@@]3(C(=O)Nc4ccc(Cl)cc43)C23C(=O)c2ccccc2C3=O)cc1OC | 22.9 µM (≈ 12.5 µg/mL) |
| O=C1c2ccccc2C(=O)C12[C@@H](c1ccc(Cl)cc1)[C@@H]1CSCN1[C@@]21C(=O)Nc2ccc([N+](=O)[O-])cc21 | 2.9 µM (≈ 1.54 µg/mL) |
| O=C1c2ccccc2C(=O)C12[C@@H](c1ccc(Br)cc1)[C@@H]1CSCN1[C@@]21C(=O)Nc2ccc([N+](=O)[O-])cc21 | 1.4 µM (≈ 0.807 µg/mL) |
| COc1ccc([C@H]2[C@@H]3CSCN3[C@@]3(C(=O)Nc4ccc([N+](=O)[O-])cc43)C23C(=O)c2ccccc2C3=O)cc1 | 11.9 µM (≈ 6.28 µg/mL) |
| O=C1c2ccccc2C(=O)C12[C@@H](c1ccccc1Cl)[C@@H]1CSCN1[C@@]21C(=O)Nc2ccc([N+](=O)[O-])cc21 | 5.9 µM (≈ 3.14 µg/mL) |
| O=C1c2ccccc2C(=O)C12[C@@H](c1ccccc1Cl)[C@@H]1CSCN1[C@@]21C(=O)Nc2ccc(Cl)cc21 | 6 µM (≈ 3.13 µg/mL) |

| SMILES | MIC |
| --- | --- |
| O=C1c2ccccc2C(=O)C12[C@@H](c1ccccc1)[C@@H]1CSCN1[C@@]21C(=O)Nc2ccccc21 | > 55.2 µM |
| O=C1c2ccccc2C(=O)C12[C@@H](c1cccc(F)c1)[C@@H]1CSCN1[C@@]21C(=O)Nc2ccc([N+](=O)[O-])cc21 | 3 µM (≈ 1.55 µg/mL) |
| O=C1c2ccccc2C(=O)C12[C@@H](c1ccc(Cl)cc1)[C@@H]1CSCN1[C@@]21C(=O)Nc2ccccc21 | 25.7 µM (≈ 12.5 µg/mL) |
| CC(C)c1ccc([C@H]2[C@@H]3CSCN3[C@@]3(C(=O)Nc4ccccc43)C23C(=O)c2ccccc2C3=O)cc1 | 25.3 µM (≈ 12.5 µg/mL) |
| O=C1c2ccccc2C(=O)C12[C@@H](c1cccc(Br)c1)[C@@H]1CSCN1[C@@]21C(=O)Nc2ccc([N+](=O)[O-])cc21 | 2.7 µM (≈ 1.56 µg/mL) |
| COc1ccc([C@H]2[C@@H]3CSCN3[C@@]3(C(=O)Nc4ccccc43)C23C(=O)c2ccccc2C3=O)cc1 | > 51.8 µM |
| Cc1ccccc1[C@H]1[C@@H]2CSCN2[C@@]2(C(=O)Nc3ccccc32)C12C(=O)c1ccccc1C2=O | 53.6 µM (≈ 25 µg/mL) |
| O=C1Nc2ccc([N+](=O)[O-])cc2[C@]12N1CSC[C@H]1[C@H](c1cccc(Cl)c1Cl)[C@]21Cc2ccccc2C1=O | 2.8 µM (≈ 1.55 µg/mL) |
| O=C1c2ccccc2C(=O)C12[C@@H](c1ccccc1Cl)[C@@H]1CSCN1[C@@]21C(=O)Nc2ccccc21 | 25.7 µM (≈ 12.5 µg/mL) |
| O=C1c2ccccc2C(=O)C12[C@@H](c1ccccc1Br)[C@@H]1CSCN1[C@@]21C(=O)Nc2ccccc21 | 11.8 µM (≈ 6.27 µg/mL) |
| O=C1c2ccccc2C(=O)C12[C@@H](c1cccc([N+](=O)[O-])c1)[C@@H]1CSCN1[C@@]21C(=O)Nc2ccccc21 | 25.1 µM (≈ 12.5 µg/mL) |
| COc1ccc([C@H]2[C@@H]3CSCN3[C@@]3(C(=O)Nc4ccccc43)C23C(=O)c2ccccc2C3=O)cc1OC | > 48.8 µM |
| CC[C@@H](CO)NCCN[C@@H](CC)CO [ETHAMBUTOL] | 7.6 µM (≈ 1.55 µg/mL) |
| NNC(=O)c1ccncc1 [ISONIAZID] | 0.4 µM (≈ 0.0549 µg/mL) |
| CO[C@H]1/C=C/O[C@@]2(C)Oc3c(C)c(O)c4c(O)c(c(/C=N/N5CCN(C)CC5)c(O)c4c3C2=O)NC(=O)/C(C)=C\C=C\[C@H](C)[C@H](O)[C@@H](C)[C@@H](O)[C@@H](C)[C@H](OC(C)=O)[C@@H]1C [RIFAMPIN] | 0.1 µM (≈ 0.0823 µg/mL) |
